Assay results taken from the supplement of paper PMC8612539.
≈ marks a conversion by molar mass, not a printed value.

System: Escherichia coli
Test: minimum inhibitory concentration (MIC)
Procedure: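 Broth microdilution MIC (Sensititre BOPO7F bovine plate, CLSI methods) of 19 antimicrobials against field isolates of P. multocida, M. haemolytica, H. somni (deep nasopharyngeal swabs) and E. coli, Enterococcus spp. (rectal swabs) from weaned dairy heifers. Incubation 16-24 h at 35 C. MIC is the lowest concentration preventing visible growth. Values with <= or > lie at the tested range limits. Trimethoprim-sulfamethoxazole is given as the trimethoprim component of a 1:19 mixture.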

CC1(C)S[C@@H]2[C@H](NC(=O)Cc3ccccc3)C(=O)N2[C@H]1C(=O)O [Penicillin]
minimum inhibitory concentration (isolate (source animal id): 8): > 8 µg/mL
minimum inhibitory concentration (isolate (source animal id): 9): > 8 µg/mL
minimum inhibitory concentration (isolate (source animal id): 10): > 8 µg/mL
minimum inhibitory concentration (isolate (source animal id): 11): > 8 µg/mL
minimum inhibitory concentration (isolate (source animal id): 12): > 8 µg/mL
minimum inhibitory concentration (isolate (source animal id): 13): > 8 µg/mL
minimum inhibitory concentration (isolate (source animal id): 14): > 8 µg/mL
minimum inhibitory concentration (isolate (source animal id): 15): > 8 µg/mL
minimum inhibitory concentration (isolate (source animal id): 16): > 8 µg/mL
minimum inhibitory concentration (isolate (source animal id): 98): > 8 µg/mL
minimum inhibitory concentration (isolate (source animal id): 99): > 8 µg/mL
minimum inhibitory concentration (isolate (source animal id): 100): > 8 µg/mL
minimum inhibitory concentration (isolate (source animal id): 101): 4 µg/mL (≈ 12 µM)
minimum inhibitory concentration (isolate (source animal id): 102): > 8 µg/mL
minimum inhibitory concentration (isolate (source animal id): 103): > 8 µg/mL
minimum inhibitory concentration (isolate (source animal id): 104): > 8 µg/mL
minimum inhibitory concentration (isolate (source animal id): 105): > 8 µg/mL
minimum inhibitory concentration (isolate (source animal id): 106): > 8 µg/mL
minimum inhibitory concentration (isolate (source animal id): 107): > 8 µg/mL
minimum inhibitory concentration (isolate (source animal id): 108): > 8 µg/mL
minimum inhibitory concentration (isolate (source animal id): 109): > 8 µg/mL
minimum inhibitory concentration (isolate (source animal id): 110): > 8 µg/mL
minimum inhibitory concentration (isolate (source animal id): 111): > 8 µg/mL
minimum inhibitory concentration (isolate (source animal id): 112): > 8 µg/mL
minimum inhibitory concentration (isolate (source animal id): 113): > 8 µg/mL
minimum inhibitory concentration (isolate (source animal id): 114): > 8 µg/mL
minimum inhibitory concentration (isolate (source animal id): 115): > 8 µg/mL
minimum inhibitory concentration (isolate (source animal id): 116): > 8 µg/mL
minimum inhibitory concentration (isolate (source animal id): 117): > 8 µg/mL
minimum inhibitory concentration (isolate (source animal id): 118): > 8 µg/mL
minimum inhibitory concentration (isolate (source animal id): 119): > 8 µg/mL
minimum inhibitory concentration (isolate (source animal id): 120): > 8 µg/mL
minimum inhibitory concentration (isolate (source animal id): 121): > 8 µg/mL
minimum inhibitory concentration (isolate (source animal id): 122): 8 µg/mL (≈ 23.9 µM)
minimum inhibitory concentration (isolate (source animal id): 123): > 8 µg/mL
minimum inhibitory concentration (isolate (source animal id): 124): > 8 µg/mL
minimum inhibitory concentration (isolate (source animal id): 125): > 8 µg/mL
minimum inhibitory concentration (isolate (source animal id): 126): > 8 µg/mL
minimum inhibitory concentration (isolate (source animal id): 127): > 8 µg/mL
minimum inhibitory concentration (isolate (source animal id): 128): > 8 µg/mL
minimum inhibitory concentration (isolate (source animal id): 129): > 8 µg/mL
minimum inhibitory concentration (isolate (source animal id): 130): > 8 µg/mL
minimum inhibitory concentration (isolate (source animal id): 131): > 8 µg/mL
minimum inhibitory concentration (isolate (source animal id): 132): > 8 µg/mL
minimum inhibitory concentration (isolate (source animal id): 133): > 8 µg/mL
minimum inhibitory concentration (isolate (source animal id): 134): > 8 µg/mL
minimum inhibitory concentration (isolate (source animal id): 135): > 8 µg/mL
minimum inhibitory concentration (isolate (source animal id): 136): > 8 µg/mL
minimum inhibitory concentration (isolate (source animal id): 137): > 8 µg/mL
minimum inhibitory concentration (isolate (source animal id): 138): > 8 µg/mL
minimum inhibitory concentration (isolate (source animal id): 139): 8 µg/mL (≈ 23.9 µM)
minimum inhibitory concentration (isolate (source animal id): 140): > 8 µg/mL
minimum inhibitory concentration (isolate (source animal id): 141): > 8 µg/mL
minimum inhibitory concentration (isolate (source animal id): 142): > 8 µg/mL
minimum inhibitory concentration (isolate (source animal id): 143): > 8 µg/mL
minimum inhibitory concentration (isolate (source animal id): 144): > 8 µg/mL
minimum inhibitory concentration (isolate (source animal id): 145): > 8 µg/mL
minimum inhibitory concentration (isolate (source animal id): 146): > 8 µg/mL
minimum inhibitory concentration (isolate (source animal id): 147): > 8 µg/mL
minimum inhibitory concentration (isolate (source animal id): 148): > 8 µg/mL
minimum inhibitory concentration (isolate (source animal id): 149): > 8 µg/mL
minimum inhibitory concentration (isolate (source animal id): 150): > 8 µg/mL
minimum inhibitory concentration (isolate (source animal id): 151): 8 µg/mL (≈ 23.9 µM)
minimum inhibitory concentration (isolate (source animal id): 152): > 8 µg/mL
minimum inhibitory concentration (isolate (source animal id): 153): > 8 µg/mL
minimum inhibitory concentration (isolate (source animal id): 154): > 8 µg/mL
minimum inhibitory concentration (isolate (source animal id): 155): > 8 µg/mL
minimum inhibitory concentration (isolate (source animal id): 156): > 8 µg/mL
minimum inhibitory concentration (isolate (source animal id): 157): > 8 µg/mL
minimum inhibitory concentration (isolate (source animal id): 158): > 8 µg/mL
minimum inhibitory concentration (isolate (source animal id): 159): > 8 µg/mL
minimum inhibitory concentration (isolate (source animal id): 160): > 8 µg/mL
minimum inhibitory concentration (isolate (source animal id): 161): > 8 µg/mL
minimum inhibitory concentration (isolate (source animal id): 162): > 8 µg/mL
minimum inhibitory concentration (isolate (source animal id): 163): > 8 µg/mL
minimum inhibitory concentration (isolate (source animal id): 164): > 8 µg/mL
minimum inhibitory concentration (isolate (source animal id): 165): > 8 µg/mL
minimum inhibitory concentration (isolate (source animal id): 166): > 8 µg/mL
minimum inhibitory concentration (isolate (source animal id): 167): > 8 µg/mL
minimum inhibitory concentration (isolate (source animal id): 168): > 8 µg/mL
minimum inhibitory concentration (isolate (source animal id): 169): > 8 µg/mL
minimum inhibitory concentration (isolate (source animal id): 170): > 8 µg/mL
minimum inhibitory concentration (isolate (source animal id): 171): > 8 µg/mL
minimum inhibitory concentration (isolate (source animal id): 172): > 8 µg/mL
minimum inhibitory concentration (isolate (source animal id): 173): > 8 µg/mL
minimum inhibitory concentration (isolate (source animal id): 174): > 8 µg/mL
minimum inhibitory concentration (isolate (source animal id): 175): > 8 µg/mL
minimum inhibitory concentration (isolate (source animal id): 176): > 8 µg/mL
minimum inhibitory concentration (isolate (source animal id): 177): > 8 µg/mL
minimum inhibitory concentration (isolate (source animal id): 178): > 8 µg/mL
minimum inhibitory concentration (isolate (source animal id): 179): > 8 µg/mL
minimum inhibitory concentration (isolate (source animal id): 180): > 8 µg/mL
minimum inhibitory concentration (isolate (source animal id): 181): > 8 µg/mL
minimum inhibitory concentration (isolate (source animal id): 182): > 8 µg/mL
minimum inhibitory concentration (isolate (source animal id): 183): > 8 µg/mL
minimum inhibitory concentration (isolate (source animal id): 184): > 8 µg/mL
minimum inhibitory concentration (isolate (source animal id): 185): > 8 µg/mL
minimum inhibitory concentration (isolate (source animal id): 186): > 8 µg/mL
minimum inhibitory concentration (isolate (source animal id): 187): > 8 µg/mL
minimum inhibitory concentration (isolate (source animal id): 188): > 8 µg/mL
